Paper PMC6024615, “Effect of Biliary Drainage on the Toxicity and Toxicokinetics of Amanita exitialis in Beagles” (Toxins, 2018)
*1 amine or outer side, *2 acyl side, *3 side chain or, on linkers, in order; H or OH if unused. Where a SMILES comes first, the peptide text is derived from it. Bridges are numbered along the chain shown (N, C = ends). [ ]: non-standard residue; d: D form. Trp(2-yl) = O=C([C@H](Cc1c([*:3])[nH]c2ccccc12)N[*:1])[*:2]; Leu(4R-OH,5-OH) = C[C@](O)(CO)C[C@H](N)C(=O)O; dAsp(3S-OH) = N[C@@H](C(=O)O)[C@H](O)C(=O)O; cisHyp = O=C(O)[C@@H]1C[C@H](O)CN1

Experiment: Peptide toxins in the bile of beagles with biliary drainage
Assay type: in vivo, beagle dogs
Settings: for Accumulated amounts excreted in bile / percentage of total bile excretion, Accumulated amounts: 0–4 days
Description: The study was approved by National Institute of Occupational Health and Poison Control review board for animal experiments. Twenty-four male beagles (age, 8–10 months; weight, 10 ± 1 kg) were obtained from Beijing Institute of Xieerxin Biology Resource (Beijing, China). They were randomly divided into four groups of six animals each: control, biliary drainage, and 20 and 60 mg/kg with biliary drainage groups. The biliary drainage operation was conducted in all groups barring the control group. The dogs were dressed in homemade underwear, coats, and Elizabeth circles for a week to ensure pre-experimental acclimatization (Figure S8a–c). After determining the baseline values for biochemical indicators, the dogs were fasted for 24 h but received water ad libitum. They were anesthetized by intravenous administration of pentobarbital sodium (3%, 1 mL/kg) during the surgery. A temperature of 38–39 °C was maintained with a warming mat. After skin preservation and sterilization, the abdominal cavity was opened through the central abdomen. The abdomen was explored and blunt dissection of the common bile duct was performed (Figure S8d). The common bile duct and its branches were ligated from the intestinal side. A 7.0-Fr drainage catheter (COOK, Bloomington, IN, USA) was percutaneously inserted into the gallbladder, and a medical drainage bag was connected to the drainage catheter coming out of the abdominal cavity. Each opened layer, including the peritoneum, abdominal wall muscle, and skin, was closed with suture. The operative incision was protected with sterile gauze and a bandage, and the dogs were dressed in homemade underwear, coats, and Elizabeth circles. The drainage bag was placed in the pocket of the coat (Figure S8e). After the anesthetic wore off, the dogs were placed in cages, and food and water were provided ad libitum. The operative incision was sterilized with iodophor twice a day until stitches were removed six days after surgery. The drainage bag was replaced every day. On the eighth day after surgery, the 20 and 60 mg/kg with biliary drainage groups were orally administered a lyophilized powder of Amanita exitialis in starch capsules. In control and bile drainage group, the beagle dogs were fed with empty capsules. Immediately after dosing, the animals were placed in their cages, and food and water were provided ad libitum. Dogs were sacrificed with an overdose of sodium pentobarbital at the end of the experiment. All procedures were performed according to the ethical standards of the National Institutes of Health Guide for Animal Welfare and approved by the Institutional Animal Care and Use Committee (EAWE-2017-005).
Peptide toxins in blood and urine samples were analyzed as described previously. Bile samples from Days 0–1, Days 1–2, Days 2–3, and Days 3–4 were collected and stored in medical drainage bags and the bile volume was recorded. Plasma and urine samples were stored at 2–8 °C until analysis for peptide toxins.
α-Amanitin, β-amanitin, γ-amanitin, and phallacidin were used as the standard reference materials. Aliquots (0.2 mL) of bile samples were transferred into 2-mL polypropylene centrifuge tubes in duplicates. Next, 1 mL of acetonitrile was added to each tube. After vortex-mixing for 1 min, each sample was sonicated for 30 min and centrifuged at 11,200× g for 10 min at 4 °C. The supernatants were loaded on solid-phase extraction columns (Oasis PRiME HLB, 60 mg, 3 cc). The columns were then washed with 3 mL of methanol/ultrapure water (v/v: 5/95). The eluent was evaporated in a stream of nitrogen at room temperature. The dry residue was dissolved in 0.2 mL of ultrapure water and analyzed by UPLC-ESI-MS/MS.
UPLC and MS/MS parameters were as described in our previous study. The limit of detection and limit of quantitation of each toxin in the bile were 0.03 mg/kg and 0.5 mg/kg, respectively.

[1] = 0-1 d, 20 mg/kg with biliary drainage group
[2] = 0-1 d, 60 mg/kg with biliary drainage group
[3] = 0–1 days, 20 mg/kg with biliary drainage group
[4] = 0–1 days, 60 mg/kg with biliary drainage group
[5] = 20 mg/kg with biliary drainage group
[6] = 60 mg/kg with biliary drainage group
[7] = 60 mg/kg with biliary drainage group, 60 mg/kg
[8] = 20 mg/kg with biliary drainage group, mean ± SD
[9] = 60 mg/kg with biliary drainage group, mean ± SD
[10] = 1-2 d, 20 mg/kg with biliary drainage group
[11] = 1-2 d, 60 mg/kg with biliary drainage group
[12] = 1–2 days, 20 mg/kg with biliary drainage group
[13] = 1–2 days, 60 mg/kg with biliary drainage group
[14] = 2-3 d, 20 mg/kg with biliary drainage group
[15] = 2-3 d, 60 mg/kg with biliary drainage group
[16] = 2–3 days, 20 mg/kg with biliary drainage group
[17] = 2–3 days, 60 mg/kg with biliary drainage group
[18] = 3-4d, 20 mg/kg with biliary drainage group
[19] = 3-4d, 60 mg/kg with biliary drainage group
[20] = 3–4 days, 20 mg/kg with biliary drainage group
[21] = 3–4 days, 60 mg/kg with biliary drainage group

SMILES | detection rate of peptide toxins in bile [2] [%] | daily amount excreted in bile [3] [mg] | percentage of total bile excretion excreted daily [3] [%] | daily amount excreted in bile [4] [mg] | percentage of total bile excretion excreted daily [4] [%] | Accumulated amounts excreted in bile [5] [mg] | percentage of total bile excretion, Accumulated amounts [5] [%] | percentage of total bile excretion, Accumulated amounts [6] [%] | ratio of peptide toxins in bile to excretion in urine and bile [8] | ratio of peptide toxins in bile to excretion in urine and bile [9] | detection rate of peptide toxins in bile [10] [%] | toxin concentration in bile [10] [µg/L] | detection rate of peptide toxins in bile [11] [%] | daily amount excreted in bile [12] | percentage of total bile excretion excreted daily [12] | daily amount excreted in bile [13] | percentage of total bile excretion excreted daily [13] | detection rate of peptide toxins in bile [14] [%] | toxin concentration in bile [14] [µg/L] | detection rate of peptide toxins in bile [15] [%] | other results
CC(C)[C@@H]1NC(=O)[C@H](C[C@@](C)(O)CO)NC(=O)[C@@H]2Cc3c([nH]c4ccccc34)SC[C@H](NC(=O)[C@@H]([C@H](O)C(=O)O)NC1=O)C(=O)N1C[C@@H](O)C[C@H]1C(=O)N[C@@H](C)C(=O)N2 [phallacidin] (cyclo(A[Trp(2-yl)][Leu(4R-OH,5-OH)]V[dAsp(3S-OH)]C[cisHyp]); thioether 2-6) | 83 | 0.00005 | 100 | 0.0002 | 81.7 | 0.00005 | 100 | 100 | less than 10% | less than 20% | 0 | 0 | 75 | 0(0%) mg | 0(0%) | 0.00004 mg | 18.3% | 0 | 0 | 0 | detection rate of peptide toxins in bile [1]: 83%; toxin concentration in bile (0-1d, 20 mg/kg with biliary drainage group, mean ± SD): 0 µg/L; Accumulated amounts excreted in bile [7]: 0.00024 mg; ratio of peptide toxins in bile to excretion in urine and bile (20 mg/kg with biliary drainage group, mean ± SD, listed as Phallacidin): 4.8 ± 5.7%; ratio of peptide toxins in bile to excretion in urine and bile (60 mg/kg with biliary drainage group, mean ± SD, listed as Phallacidin): 9.4 ± 6.4%; toxin concentration in bile [15]: 0 µg/L; daily amount excreted in bile [16]: 0(0%) mg; percentage of total bile excretion excreted daily [16]: 0(0%); daily amount excreted in bile [17]: 0(0%) mg; percentage of total bile excretion excreted daily [17]: 0(0%); detection rate of peptide toxins in bile [18]: 0%; toxin concentration in bile [18]: 0 µg/L; detection rate of peptide toxins in bile [19]: 0%; toxin concentration in bile [19]: 0 µg/L; daily amount excreted in bile [20]: 0(0%) mg; percentage of total bile excretion excreted daily [20]: 0(0%); daily amount excreted in bile [21]: 0(0%) mg; percentage of total bile excretion excreted daily [21]: 0(0%)
CC[C@H](C)[C@@H]1NC(=O)CNC(=O)[C@@H]2Cc3c([nH]c4cc(O)ccc34)[S@+]([O-])C[C@H](NC(=O)CNC1=O)C(=O)N[C@@H](CC(=O)O)C(=O)N1C[C@H](O)C[C@H]1C(=O)N[C@@H]([C@@H](C)[C@@H](O)CO)C(=O)N2 [β-amanitin] | 83 | 0.00014 | 100 | 0.00122 | 100 | 0.00014 | 100 | 100 | less than 10% | less than 20% | 0 | 0 | 0 | 0(0%) mg | 0(0%) | 0(0%) mg | 0(0%) | 0 | 0 | 0 | detection rate of peptide toxins in bile [1]: 50%; Accumulated amounts excreted in bile [7]: 0.0012 mg; Accumulated amounts excreted in bile (60 mg/kg with biliary drainage group, listed as β-Amanitin, 60 mg/kg): 0.00122 mg; ratio of peptide toxins in bile to excretion in urine and bile (20 mg/kg with biliary drainage group, mean ± SD, listed as β-Amanitin): 5.7 ± 8.5%; ratio of peptide toxins in bile to excretion in urine and bile (60 mg/kg with biliary drainage group, mean ± SD, listed as β-Amanitin): 15.4 ± 10.6%; toxin concentration in bile [11]: 0 µg/L; toxin concentration in bile [15]: 0 µg/L; daily amount excreted in bile [16]: 0(0%) mg; percentage of total bile excretion excreted daily [16]: 0(0%); daily amount excreted in bile [17]: 0(0%) mg; percentage of total bile excretion excreted daily [17]: 0(0%); detection rate of peptide toxins in bile [18]: 0%; toxin concentration in bile [18]: 0 µg/L; detection rate of peptide toxins in bile [19]: 0%; toxin concentration in bile [19]: 0 µg/L; daily amount excreted in bile [20]: 0(0%) mg; percentage of total bile excretion excreted daily [20]: 0(0%); daily amount excreted in bile [21]: 0(0%) mg; percentage of total bile excretion excreted daily [21]: 0(0%)
CC[C@H](C)[C@@H]1NC(=O)CNC(=O)[C@@H]2Cc3c([nH]c4cc(O)ccc34)[S@+]([O-])C[C@H](NC(=O)CNC1=O)C(=O)N[C@@H](CC(N)=O)C(=O)N1C[C@H](O)C[C@H]1C(=O)N[C@@H]([C@@H](C)[C@@H](O)CO)C(=O)N2 [α-amanitin] | 83 | 0.00007 | 100 | 0.00061 | 100 | 0.00007 | 100 | 100 | less than 10% | less than 20% | 0 | 0 | 0 | 0(0%) mg | 0(0%) | 0(0%) mg | 0(0%) | 0 | 0 | 0 | Accumulated amounts excreted in bile [6]: 0.00061 mg; ratio of peptide toxins in bile to excretion in urine and bile (20 mg/kg with biliary drainage group, mean ± SD, listed as α-Amanitin): 1.3 ± 2.4%; ratio of peptide toxins in bile to excretion in urine and bile (60 mg/kg with biliary drainage group, mean ± SD, listed as α-Amanitin): 3.1 ± 2.5%; toxin concentration in bile [11]: 0 µg/L; toxin concentration in bile [15]: 0 µg/L; daily amount excreted in bile [16]: 0(0%) mg; percentage of total bile excretion excreted daily [16]: 0(0%); daily amount excreted in bile [17]: 0(0%) mg; percentage of total bile excretion excreted daily [17]: 0(0%); detection rate of peptide toxins in bile [18]: 0%; toxin concentration in bile [18]: 0 µg/L; detection rate of peptide toxins in bile [19]: 0%; toxin concentration in bile [19]: 0 µg/L; daily amount excreted in bile [20]: 0(0%) mg; percentage of total bile excretion excreted daily [20]: 0(0%); daily amount excreted in bile [21]: 0(0%) mg; percentage of total bile excretion excreted daily [21]: 0(0%)
